Measured values from a melting point compilation (Tetko et al.; mined from patent text by program, amines drawn as free bases though some values may be those of a salt).

SMILES | melting point
CCC(c1cnc2c(C)c(NC(=O)c3ccc(-c4ccc(F)cc4)cc3)ccc2c1)N1CCCC1 (configuration not stated) | 188 to 191 °C
CSc1nc(Cl)c(Cl)nc1Cl | 45 to 47 °C
Cc1nc2c(OCCNCc3ccccc3)cccc2[nH]1 | > 250 °C
CC(OC(=O)c1ccccc1)C(N)=O (configuration not stated) | 116 to 117 °C
CCOc1nc(=O)n(C(=O)NC(=O)CCl)s1 | 132 °C
COc1ccc(-c2nn(Cc3ccccc3)c(=O)cc2-c2ccc(OC)c(F)c2)cc1 | 110 to 112 °C
CC(C)(O)c1ccoc1C(=O)c1[nH]c2cc(Cl)ccc2c1CC(=O)O | 229 to 230 °C
COc1cccc(-c2ccc3c(c2)NC(=O)OC3(C)C)c1 | 167 to 168 °C
O=C(NN=C(Cc1ccccc1)c1ccccn1)OCc1ccccc1 | 155 °C
CC(C)n1nc(-c2cc(-n3cccc3)cnc2-c2ccccc2)ccc1=O | 189 to 190 °C
CCc1[nH]n(C2CCCC2)c2nc(-c3ccnc4ccccc34)nc(=O)c1-2 | 205 to 206 °C
Cn1c(CC(=O)O)cc2ccccc21 | 146 to 148 °C
Cc1nc(/C=C/c2ccc3ccccc3n2)cc(-n2nc(C)nc2C)n1 | 153 to 155 °C
COC(=O)C12OCC34C(CC5C(C)=C(O)C(=O)CC5(C)C3C(O)C1O)OC(=O)C(OC(=O)C=C(C)C(C)C)C24 (configuration not stated) | 220 to 223 °C
CCCCCCC1C(=O)NC(C(=O)SCCC(=O)OC)(C(O)C2C=CCCC2)C1(C)O (configuration not stated) | 64 °C
CCOC(=O)Cc1c(C)n(Cc2ccc3ccccc3c2)c2ccc(OCc3csc(-c4ccccc4)n3)cc12 | 118 to 119 °C
N#CC1(c2ccc(F)cc2)CCC(N2CCC3(CC2)C(=O)NCN3c2ccccc2)CC1 (configuration not stated) | 236 °C
O=C(NCC12CC3CC(CC(C3)C1)C2)c1cc(-c2ccc(Cl)c(C(=O)O)n2)ccc1Cl | 154 to 159 °C
COc1nc2cc(Cl)c(Cl)c(N(CC(C)O)S(C)(=O)=O)c2nc1OC (racemic) | 176 to 177 °C
COc1ccc(CS(=O)CC(=O)NO)cc1OC (configuration not stated) | 202 °C
CN1CN(C)C(=N[N+](=O)[O-])N(Cc2cnc(Cl)s2)C1 | 125 to 126 °C
c1ccc(-c2ccc(-c3nc4n(n3)Cc3ccccc3-4)cc2)cc1 | 231 °C
NC(=O)c1sc2ncnc(-c3cc(O)c4c(c3)OCC4)c2c1N | 285 °C
CCOC(=O)c1[nH]c2cc(Cl)cc(Cl)c2c1C(=O)OCC | 167 to 170 °C

SMILES | melting point
N#Cc1c(N2CCN(C(=O)c3cccs3)CC2)c2sccc2[nH]c1=O | 293 °C
CCCCc1oc2ccc(NS(C)(=O)=O)cc2c1C(O)c1ccc(OCCCN(CCCC)CCCC)cc1 (configuration not stated) | 94 °C
COc1cc2ncnc(N3CCC(C(C)CN4CCC(C)NS4(=O)=O)CC3)c2cc1OC (configuration not stated) | 172 to 175 °C
COc1ccc(COC(=O)NC(CO)Cc2ccc(O)cc2)cc1 (configuration not stated) | 139 to 141 °C
CC(CS)C(=O)Nc1cc(C(=O)O)ccn1 (configuration not stated) | 247 to 248 °C
CC(C)n1cc2c3c(cccc31)C1CC(C(=O)NC3CCCC3O)CN(C)C1C2 (configuration not stated) | 232 to 234 °C
CN(C)C(=O)C1=C(C(=O)Nc2cc(OC3CCCC3)c(Cl)cc2F)CCCC1 | 136 to 138 °C
CCOC(=O)CNC(=O)[C@H](Cc1ccc(O)cc1)NC(=O)[C@H](CO)NC(=O)OCc1ccccc1 | 166 to 169 °C
COC(=O)c1ccc(O)c(-n2cccc2C=O)c1 | 147 to 148 °C
Cc1ncncc1C(=O)Nc1ccc(-n2nc(C(F)(F)F)cc2C2CC2)cc1 | 163 to 166 °C
CCOC(=O)c1ccc(NCCc2cccs2)cc1 | 93 to 96 °C
c1nc(-c2ccc3c(c2)OCO3)c2cc3c(cc2n1)OCO3 | 180 to 185 °C
CSc1nc(NCCC(C)C)c2[nH]nc(C)c2n1 | 90 to 95 °C
Cc1ccc(OC2SCC(O)C(O)C2O)cn1 (configuration not stated) | 233 °C
CCOC(=O)c1cc2ccc3cc4ccccc4cc3c2n1C | 165 to 166 °C
O=C(N[C@H]1CCCNC1=O)c1cc(F)cc(F)c1 | 198 to 199 °C
COc1ccc(CNc2cc(C(O)CNC(C)(C)CCn3cnc4ccccc43)ccc2O)cc1 (configuration not stated) | 154 to 155 °C
COC(=O)c1cccc([N+](=O)[O-])c1C(=O)O | 166 to 168 °C
CCCc1ccc2c(c1)C1(O)C(=O)c3ccccc3C1(O)O2 (configuration not stated) | 126 to 127 °C
OC1(C(F)(F)F)CC(c2ccc(Cl)cc2)=NN1Cc1cccnc1 (configuration not stated) | 158 to 160 °C
CSc1c(C)cc(O)c(C(=O)Nc2ccc(S(=O)(=O)C(F)(F)F)cc2Cl)c1C | 201 to 202 °C
c1ccc(CNc2c(-c3ccccc3)sc3ccccc23)cc1 | 52 to 53 °C
Cc1c(C(=O)Nc2ccc(N3CCN(C4CCOCC4)CC3)c(C#N)c2)cnn1-c1cccc(Cl)c1 | 230 °C

The next lines start with the values.

melting point | SMILES
268 to 270 °C | CCSC1(SCC)C(=O)CC2C3CCC4=CC(=O)C=CC4(C)C3(F)C(O)CC21C (configuration not stated)
267 to 270 °C | CC(=O)c1cc(C#N)c(=O)[nH]c1C=CN(C)C
51 to 53 °C | COc1ccc(C(=O)C#N)cc1
201 to 202 °C | CCn1nc(-c2ccccc2)c(-c2csc(-c3ccc(OC)cc3)n2)c(Nc2cccnc2)c1=O
202 to 204 °C | CC(C)c1nc(C(C)C)c(C(O)c2ccccc2)c(-c2ccc(F)cc2)c1CO (configuration not stated)
152 °C | N#Cc1cnn(-c2c(Cl)cc(Cl)cc2Cl)c1C=O
74 °C | CNC(=S)NS(=O)(=O)c1cc(CCNC(=O)/C=C/c2cccs2)ccc1OCCc1ccccc1
280 to 282 °C | O=S(=O)(O)CCCNC1CCCC1
113 to 114 °C | CC(C)(C)OC(=O)NC1Cc2ccccc2C1Oc1ccccc1Cc1ccccc1 (configuration not stated)
294 °C | Cc1nc2cnccc2n1-c1ccc(O)cc1F
76.5 to 77.5 °C | O=Cc1ccc(-c2cc(C(F)(F)F)n(Cc3ccccc3)n2)o1
142 to 143 °C | Cc1oc(-c2cccs2)nc1COc1ccc(CON=C(CCC(=O)O)c2ccccc2)cc1
123 °C | N#CCC(O)(c1ccc(Cl)cc1)c1ccc(-c2ccc(Cl)cc2)cc1 (configuration not stated)
38 to 39 °C | O=S(=O)(c1ccccc1)C(F)(F)C(F)Cl (configuration not stated)
155 °C | Nc1cccc2cncc(Br)c12
189 to 193 °C | CC(=O)c1ccc(N)c(C#N)c1Cl
98 to 100 °C | CCOC(=O)/C=C(/c1ccc(OC)cc1)c1cc(Cl)ccc1Cl
177 to 178 °C | CCSC(=S)N1Cc2[nH]c3ccccc3c2CC1C(=O)O (configuration not stated)
146 to 147 °C | O=C(C=C1CCCN1)c1ccc(Cl)cc1
234 to 236 °C | Nc1nc(Cl)cc(Oc2ccc3c(C(=O)Nc4cccc(C(F)(F)F)c4)cccc3c2)n1
300 to 302 °C | Cc1ccc2c3[nH]nc(Cc4ccccc4)c3c(=O)n(-c3ccccc3)c2n1
71 to 73 °C | COc1ccccc1C(=O)N1CCN(C(=O)CNC2CCN(Cc3ccccc3)CC2)C(c2ccc(Cl)c(Cl)c2)C1 (racemic)
218 to 220 °C | CCOc1ccccc1-c1ccc(C(N)=O)c(=O)[nH]1
188 to 189 °C | CC1(C)C(=O)Nc2ccc(-c3cccc(Cl)c3)cc21
189 to 192 °C | O=C(O)c1cc2ccoc2nc1C(=O)O
156 to 158 °C | O=C(O)CCc1cc(Cl)ccc1C(=O)O
110 to 121 °C | NS(=O)(=O)c1ccc(-c2c(-c3ccccc3)noc2COCCO)cc1
248 °C | CCOC(=O)CCC(=O)Nc1n[nH]c2cc(C(F)(F)F)ccc12

melting point | SMILES
52 to 53 °C | CC(C)(CO)OCc1nn(Cc2ccccc2)c2ccccc12
230 °C | Sc1ccc(-c2nc3cnccc3[nH]2)cc1
225 to 227 °C | COc1ccc(-c2cnc3cc4cn(Cc5ccccc5)nc4cc3n2)cc1F
57 to 58 °C | COC1(c2cccc(OCc3ccc4ccccc4c3)c2)CCCOCC1 (configuration not stated)
214 to 216 °C | CCOC(=O)c1cnc2sc(Br)c(C)c2c1O
104 °C | FC(F)(F)c1n[nH]c2ccccc12
202 to 203 °C | CCOC(=O)Cc1n[nH]c(=O)c2cc(Cl)c(Cl)cc12
106 to 108 °C | O=C1c2ccccc2C(=O)N1CCN1CCC(=C(c2ccccc2)c2ccccc2)CC1
200 to 202 °C | COc1cc(NC(=O)OC(C)(C)C)cc2c1nc(C(F)F)n2-c1nc(N2CCOCC2)nc(N2CCN(S(=O)(=O)CCN(C)C)CC2)n1
109 to 112 °C | COC(=O)c1cccc(C=C2COc3ccc(OCc4ccccc4)cc3C2=O)c1
129 °C | O=C(c1cccs1)c1cnn2c(-c3cccc(-c4cc[nH]n4)c3)ccnc12
118 to 120 °C | CC(C)(C)OC(=O)NCc1cccc(C(O)c2cc(Cl)ccc2NCc2ccc(OCc3ccccc3)c(OCc3ccccc3)c2)c1 (configuration not stated)
> 260 °C | Clc1ccc(C2C3=C(CCS3)NC3=C2SCC3)cc1Cl
80 to 81 °C | Cc1ccc(S(=O)(=O)N(C)c2ccc(Cl)nn2)cc1
47 to 48 °C | C=C(C)Oc1nc(NCCSCc2ccco2)ncc1Cc1ccc(C)nc1
164 to 166 °C | COc1ccc(OC)c2c1COC(C(=O)O)C2 (configuration not stated)
227 to 230 °C | CC(=O)OC1CCC2(C)C(=CCC3C2CCC2(C)C(n4cnc5ccccc54)=C(C=O)CC32)C1 (configuration not stated)
168 to 170 °C | Cc1ccccc1Oc1cccc2c1OC(=O)C2N1C(=O)c2ccccc2C1=O (configuration not stated)
136 to 138 °C | COC(=O)c1nc(-c2ccccc2)c(-c2ccc(=O)n(C(C)C)n2)cc1C#N
83 to 86 °C | Cc1c2n(c3ccccc13)C(=O)C(C(O)c1cccnc1)CC2 (configuration not stated)
136 to 138 °C | CC(C)C(Cl)C(=O)Nc1c(C(=O)CC(=O)Nc2ccccn2)cccc1C(F)(F)F (configuration not stated)
184 to 185 °C | COc1ccc(Cn2cnc3c(-c4ccco4)nc(S(C)(=O)=O)nc32)cc1
236 °C | CC(C)n1cc(-c2nc(C(N)=O)c(N)nc2-c2ccc(F)cc2)ccc1=O
236 to 238 °C | Cc1cc(C#N)cn2cc(-c3cccc(-c4ccc(C#N)cc4)c3)nc12
159 to 161 °C | Nc1ncc(Oc2ccc(Cl)cc2)c(N2CCN(C=O)CC2)n1
167 °C | C[C@H](O)[C@H](Cc1ccccc1)C(=O)NN
100 °C | COc1cc(Cl)ccc1CC(=O)O
